Measurements taken from PMC5877965 (Proceedings of the National Academy of Sciences of the …, 2018).

Assays:
human M2 mAChR = human M2 mAChR (Homo sapiens, UniProt P08172); assay type: binding
[1] = molecular target: all five receptor subtypes; settings: cited from earlier work

Chain of human M2 mAChR (P08172 whole entry): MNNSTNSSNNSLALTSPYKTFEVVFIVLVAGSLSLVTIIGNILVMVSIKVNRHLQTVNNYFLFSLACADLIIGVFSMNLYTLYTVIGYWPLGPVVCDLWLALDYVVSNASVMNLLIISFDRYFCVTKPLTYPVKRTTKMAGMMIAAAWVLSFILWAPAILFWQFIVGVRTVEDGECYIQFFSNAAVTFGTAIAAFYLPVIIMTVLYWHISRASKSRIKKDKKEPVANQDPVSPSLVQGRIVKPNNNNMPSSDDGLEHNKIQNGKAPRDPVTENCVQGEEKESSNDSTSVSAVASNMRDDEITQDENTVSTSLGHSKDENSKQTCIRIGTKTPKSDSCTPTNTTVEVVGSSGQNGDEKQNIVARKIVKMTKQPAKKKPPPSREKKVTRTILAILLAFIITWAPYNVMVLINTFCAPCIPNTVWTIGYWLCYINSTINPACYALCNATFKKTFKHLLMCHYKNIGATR

SMILES	allosteric effect on [3H]NMS binding (in words) (human M2 mAChR)	Kd [1] [nM]
CC[N+](CC)(CC)CCOc1cccc(OCC[N+](CC)(CC)CC)c1OCC[N+](CC)(CC)CC [Gallamine, gallamine]	substantially reduced the specific binding	
COc1nc2sc(C(=O)NC3CC3)c(N)c2c(C)c1Cl [LY2033298]	small NAM effect	
CN1[C@@H]2C[C@@H](OC(=O)[C@H](CO)c3ccccc3)C[C@H]1[C@@H]1O[C@@H]12 [scopolamine]		0.4 to 2.1
